Data: patent US11680085B2, “Cyclic peptides for protection against respiratory syncytial virus” (VIROMETIX AG, priority 2017, dated 2023)

Tested on: RSV A/Tracy
Assay: Micro-Neutralization Test (MNT)
Type: cell-based, respiratory syncytial virus
Conditions: 40 μg/ml mAb in test solution
Experimental: In order to assess the neutralization capacity of the mAb at 40 μg/ml against RSV A/Tracy a Micro-Neutralization Test (MNT) was performed. A 40 μg/ml Palivizumab stock was taken as positive control and 40 μg/ml stock of an isotype-matched mAb as negative control (Table 10).

In the case of Palivizumab, the “RSV A, Tracy MN titer (log2)” value is reported as 5.0 log2.
